ChEMBL document CHEMBL6121066, “Structure-Activity Relationship Studies of DNA Methyltransferase 1 Monovalent Degraders” (J Med Chem, 2025)

Tested on: not listed separately
Assay: Induction of molecular glue effect mediated DNMT1 degradation in human HCT-116 cells assessed as reduction in DNMT1 protein level incubated for 24 hrs by Western blot analysis
Format: cell-based
Details: HCT-116, 24 h

| Compound | DC50 |
| --- | --- |
| CCc1c(C#N)c(SC(C(N)=O)c2ccccc2)nc(N2CCNC(=O)CC2)c1C#N (centres undefined) | 819 nM |
| CCc1c(C#N)c(SC(C(N)=O)c2ccccc2)nc(N2CCN(C(=O)c3ccc(C(C)C)s3)CC2)c1C#N (centres undefined) | 405 nM |
| CCc1c(C#N)c(SC(C(N)=O)c2ccccc2)nc(N2CCS(=O)(=O)CC2)c1C#N (centres undefined) | 362 nM |
| CCc1c(C#N)c(SC(C(N)=O)c2ccccc2)nc(N2CCC(NC(C)=O)CC2)c1C#N (centres undefined) | > 1000 nM |
| CCc1c(C#N)c(NCC(N)=O)nc(SC(C(N)=O)c2ccccc2)c1C#N (centres undefined) | > 1000 nM |
| CCc1c(C#N)c(SC(C(N)=O)c2ccccc2)nc(N2CCNC(=O)C2)c1C#N (centres undefined) | 534 nM |

The next molecules have a lower DC50 than those just listed; values first:

| DC50 | Compound |
| --- | --- |
| 184 nM | CCc1c(C#N)c(SC(C(N)=O)c2ccccc2)nc(N2CCNCC2)c1C#N (centres undefined) |
| 119 nM | CCc1c(C#N)c(SC(C(N)=O)c2ccccc2)nc(N2CCCNCC2)c1C#N (centres undefined) |
| 89 nM | CCc1c(C#N)c(SC(C(N)=O)c2ccccc2)nc(N2CCN(C(=O)c3nccs3)CC2)c1C#N (centres undefined) |

Biological target: DNA (cytosine-5)-methyltransferase 1 (Homo sapiens, UniProt P26358)
Assay: Inhibition of human DNMT1 (350 to 1600 residues) extracted from Escherichia coli BL21 (DE3)-codon plus-RIL cells in presence of SAM and hemimethylated DNA
Details: not given

Sequence of DNA (cytosine-5)-methyltransferase 1 (P26358 whole entry, the tested form may be a part): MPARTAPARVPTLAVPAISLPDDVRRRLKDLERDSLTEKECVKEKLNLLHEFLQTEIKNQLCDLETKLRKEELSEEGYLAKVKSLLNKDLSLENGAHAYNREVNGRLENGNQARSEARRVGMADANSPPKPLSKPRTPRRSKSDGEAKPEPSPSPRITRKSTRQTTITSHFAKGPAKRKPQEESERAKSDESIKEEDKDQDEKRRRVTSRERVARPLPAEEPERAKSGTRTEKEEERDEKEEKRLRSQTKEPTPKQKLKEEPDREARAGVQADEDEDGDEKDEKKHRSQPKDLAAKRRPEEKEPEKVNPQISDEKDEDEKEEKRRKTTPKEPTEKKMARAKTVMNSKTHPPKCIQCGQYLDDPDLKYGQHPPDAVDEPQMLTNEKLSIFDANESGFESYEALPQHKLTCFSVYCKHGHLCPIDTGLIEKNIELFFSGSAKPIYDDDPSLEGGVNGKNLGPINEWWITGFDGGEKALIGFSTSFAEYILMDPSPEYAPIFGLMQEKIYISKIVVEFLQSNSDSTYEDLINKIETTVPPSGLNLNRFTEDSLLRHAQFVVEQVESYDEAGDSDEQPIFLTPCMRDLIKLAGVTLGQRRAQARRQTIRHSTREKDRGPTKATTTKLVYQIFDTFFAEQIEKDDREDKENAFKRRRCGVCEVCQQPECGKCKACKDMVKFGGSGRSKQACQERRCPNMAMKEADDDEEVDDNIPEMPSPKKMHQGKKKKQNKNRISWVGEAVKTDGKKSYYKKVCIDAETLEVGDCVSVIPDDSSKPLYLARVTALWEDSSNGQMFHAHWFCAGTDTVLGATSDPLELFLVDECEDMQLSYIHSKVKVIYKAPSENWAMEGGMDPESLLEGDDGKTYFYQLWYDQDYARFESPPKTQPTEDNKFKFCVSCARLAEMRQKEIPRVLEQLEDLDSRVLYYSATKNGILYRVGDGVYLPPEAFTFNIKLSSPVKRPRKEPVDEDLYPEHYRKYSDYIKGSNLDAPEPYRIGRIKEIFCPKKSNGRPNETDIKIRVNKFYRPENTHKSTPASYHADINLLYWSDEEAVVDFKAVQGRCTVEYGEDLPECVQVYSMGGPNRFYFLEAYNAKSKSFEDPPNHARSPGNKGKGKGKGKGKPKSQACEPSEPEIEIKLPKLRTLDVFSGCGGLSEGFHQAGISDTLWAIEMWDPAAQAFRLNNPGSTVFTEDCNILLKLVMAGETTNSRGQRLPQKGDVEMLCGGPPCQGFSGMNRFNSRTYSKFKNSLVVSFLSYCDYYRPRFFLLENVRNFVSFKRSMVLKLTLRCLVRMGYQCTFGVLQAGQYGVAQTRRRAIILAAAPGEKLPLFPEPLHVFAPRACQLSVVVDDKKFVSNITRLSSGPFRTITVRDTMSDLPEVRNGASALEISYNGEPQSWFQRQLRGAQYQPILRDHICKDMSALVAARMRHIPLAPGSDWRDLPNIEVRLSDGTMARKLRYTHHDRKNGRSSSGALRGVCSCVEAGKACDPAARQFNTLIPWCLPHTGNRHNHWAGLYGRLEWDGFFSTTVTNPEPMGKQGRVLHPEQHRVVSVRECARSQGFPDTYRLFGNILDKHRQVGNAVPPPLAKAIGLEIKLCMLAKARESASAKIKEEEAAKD

| IC50 | Compound |
| --- | --- |
| > 3000 nM | CCc1c(C#N)c(NCC(N)=O)nc(SC(C(N)=O)c2ccccc2)c1C#N (centres undefined) |

Tested on: HCT-116
Assay: Induction of molecular glue effect mediated DNMT1 degradation in human HCT-116 cells assessed as reduction in DNMT1 protein level by measuring maximal efficacy at 1 uM incubated for 24 hrs by Western blot analysis relative to control
Format: cell-based
Details: not given

| Compound | Emax |
| --- | --- |
| CCc1c(C#N)c(SC(C(N)=O)c2ccccc2)nc(N2CCNC(=O)CC2)c1C#N (centres undefined) | 58% |
| CCc1c(C#N)c(SC(C(N)=O)c2ccccc2)nc(N2CCN(C(=O)c3ccc(C(C)C)s3)CC2)c1C#N (centres undefined) | 71% |
| CCc1c(C#N)c(SC(C(N)=O)c2ccccc2)nc(N2CCS(=O)(=O)CC2)c1C#N (centres undefined) | 74% |
| CCc1c(C#N)c(SC(C(N)=O)c2ccccc2)nc(N2CCC(NC(C)=O)CC2)c1C#N (centres undefined) | 13% |
| CCc1c(C#N)c(SC(C(N)=O)c2ccccc2)nc(N2CCNCC2)c1C#N (centres undefined) | 78% |
| CCc1c(C#N)c(NCC(N)=O)nc(SC(C(N)=O)c2ccccc2)c1C#N (centres undefined) | 32% |
| CCc1c(C#N)c(SC(C(N)=O)c2ccccc2)nc(N2CCNC(=O)C2)c1C#N (centres undefined) | 65% |
| CCc1c(C#N)c(SC(C(N)=O)c2ccccc2)nc(N2CCN(C(=O)c3nccs3)CC2)c1C#N (centres undefined) | 90% |
| CCc1c(C#N)c(SC(C(N)=O)c2ccccc2)nc(N2CCCNCC2)c1C#N (centres undefined) | 87% |
